Data on four compounds can be found in ChEMBL document CHEMBL5143518, “Pyridazino-pyrrolo-quinoxalinium salts as highly potent and selective leishmanicidal agents targeting trypanothione reductase” (Eur J Med Chem, 2022).

Series [1] addresses T1, Trypanothione reductase (Leishmania infantum, UniProt A4HSF7). Nature of the series: Inhibition of recombinant His-tagged Leishmania infantum TryR oxidoreductase activity expressed in Escherichia coli BL21 (DE3) using TS2 and NADPH as substrate by DTNB-reagent based spectrophotometric method.
For series [2], the system named is Leishmania infantum. Briefly: Leishmanicidal activity against axenic amastigote stage of Leishmania infantum MCAN/ES/89/IPZ229/1/89 assessed as reduction of proliferation of amastigotes incubated for 24 hrs by propidium iodide staining based flow cytometry. Format: functional, organism-based. The following applies: MCAN/ES/89/IPZ229/1/89, 24 h. A general note: In flow cytometry, cells or beads pass a laser one at a time.

The nature of series [3]: Cytotoxicity against human THP-1 cells assessed as reduction in cell proliferation incubated for 24 hrs by propidium iodide staining based flow cytometry.
A short description of series [4]: Selectivity index, ratio of LC50 for cytotoxicity against human THP-1 cells to EC50 of leishmanicidal activity against axenic amastigote stage of Leishmania infantum MCAN/ES/89/IPZ229/1/89.
Series [5] concerns Leishmania infantum. Nature of the series: Leishmanicidal activity against GFP-expressing axenic amastigote stage of Leishmania infantum MCAN/ES/89/IPZ229/1/89 infected in human THP-1 macrophage cells assessed as reduction in intracellular amastigotes incubated for 48 hrs by propidium iodide staining based flow cytometry. Format: functional, organism-based. The following applies: MCAN/ES/89/IPZ229/1/89, THP-1, 48 h.

The target of series [6] is T1, Trypanothione reductase. Briefly: Non competitive type inhibition of recombinant His-tagged Leishmania infantum TryR oxidoreductase activity expressed in Escherichia coli BL21 (DE3) assessed as inhibition constant using NADPH and varying concentration of TS2 as substrate by double reciprocal Lineweaver-Burk plot analysis.
Series [7] addresses Trypanothione reductase (Leishmania infantum) (UniProt A4HSF7). Briefly: Uncompetitive type inhibition of recombinant His-tagged Leishmania infantum TryR oxidoreductase activity expressed in Escherichia coli BL21 (DE3) assessed as inhibition constant using TS2 and varying concentration of NADPH as substrate by double reciprocal Lineweaver-Burk plot analysis.
Series [8] has the same target. Briefly: Inhibition of recombinant His-tagged Leishmania infantum TryR expressed in Escherichia coli BL21 (DE3) assessed as TryR mediated cytochrome c reduction in presence of NADPH at 10 uM by spectrophotometric method.

The source made the active and inactive calls. The rule behind the calls is not given here.

T1 sequence (A4HSF7 whole entry): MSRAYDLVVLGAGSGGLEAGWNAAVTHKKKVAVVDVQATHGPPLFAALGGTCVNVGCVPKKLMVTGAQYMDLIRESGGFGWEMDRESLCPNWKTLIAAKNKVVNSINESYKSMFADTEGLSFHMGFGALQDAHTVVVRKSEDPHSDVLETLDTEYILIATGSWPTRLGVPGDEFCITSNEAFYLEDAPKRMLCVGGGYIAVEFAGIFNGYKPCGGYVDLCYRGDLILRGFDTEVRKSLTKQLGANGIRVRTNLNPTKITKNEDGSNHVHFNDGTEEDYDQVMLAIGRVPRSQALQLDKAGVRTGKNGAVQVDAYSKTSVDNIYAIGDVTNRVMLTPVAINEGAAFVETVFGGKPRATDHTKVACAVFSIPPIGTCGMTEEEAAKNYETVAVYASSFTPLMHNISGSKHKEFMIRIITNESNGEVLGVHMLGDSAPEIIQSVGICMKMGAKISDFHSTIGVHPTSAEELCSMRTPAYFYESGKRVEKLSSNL
Sequence of Trypanothione reductase (Leishmania infantum) (A4HSF7 as listed by the source): as the sequence (A4HSF7 whole entry) above

Broadly, the IC50 is the concentration that gives 50% inhibition. Broadly, the EC50 is the concentration that produces a half-maximal response. As a reminder, the CC50 is the concentration at which the toxic effect on the cells reaches its halfway point. On to `CCc1cc2c3cccn3c3cc(Cl)ccc3[n+]2nc1CC`, for which, on Trypanothione reductase [1], the IC50 stood at 25700 nM. In addition, the EC50 was determined as 80 nM in the series on Leishmania infantum [2] and 3100 nM in the series on Leishmania infantum [5]. The CC50 at 24 h in series [3] is 24300 nM. Further, the selectivity ratio in series [4] was determined as 304.
Turning to `CCCCCCCCCCCCCCCCOP(=O)([O-])OCC[N+](C)(C)C` [MILTEFOSINE], the half-maximal effective concentration (EC50) came out at 520 nM with Leishmania infantum [2] and 550 nM in the series with Leishmania infantum [5]. In addition, the CC50 at 24 h in series [3] amounted to 7690 nM. For the same compound, the selectivity ratio in series [4] worked out at 14.8.
For orientation: Ki means a dissociation constant, usually derived from enzyme kinetics or from competition with a known ligand. On to `CCc1cc2c3ccc(Br)n3c3cc(Cl)ccc3[n+]2nc1CC`, for which, at Trypanothione reductase [1], the IC50 is 2980 nM. Moreover, the values for the EC50 with Leishmania infantum [2] and in the series on Leishmania infantum [5] were 80 nM and 1230 nM, respectively. The cytotoxic concentration (CC50) at 24 h in series [3] stood at 6850 nM. For the same compound, the selectivity ratio in series [4] was determined as 85.6. Further, the Ki at Trypanothione reductase [6] stood at 2830 nM. Also, the alphaKi in series [7] was 1.37 µM. Besides, the inhibition entry in series [8] was “Active”.
`CCN(CC)CCCC(C)Nc1c2ccc(Cl)cc2nc2ccc(OC)cc12` (stereo not drawn) [QUINACRINE]: the IC50 at Trypanothione reductase [1] is 13500 nM.
